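Exposure lasted 48 hours, with cells grown in 96-well plates and compounds tested at five concentrations. Definition used: TGI = concentration required for complete inhibition of growth.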 Where a SMILES comes first, the peptide text is derived from it. The star is where a group is joined. Boc = CC(C)(C)OC(=O)* Where only a bound is given, the exact number is not on record here.

As a reminder, the TGI is the concentration giving total growth inhibition.

The first experiment has as its system RXF 393 renal. The experiment can be described thus: DTP human tumour cell line panel, 48 h.
`COc1ccc(C2CC(c3c(O)ccc4ccccc34)=NN2c2ccc([N+](=O)[O-])cc2[N+](=O)[O-])cc1OC` (stereo unspecified) yielded a TGI above 71.1 µM.
On the same count and under the same terms, as for `CN1C(=O)C2C(=O)N(Cc3ccccc3)CC(=O)N2c2cccnc21` (stereo unspecified), the figure is above 100 µM; as for `O=C(O)CSc1nnc(COc2ccc(Cl)cc2)n1-c1ccccc1`, above 100 µM; as for `CN(C)CCCOc1nc2c(c(=O)n(C)c(=O)n2C)n1C` (tested in a mixture with another compound), above 100 µM.
In turn, `C[N+]1=C2[B-](C(C)(C)C)=[N+](C(C)(C)C)[B-]2(C(C)(C)C)[N+](C)=C2[B-](C(C)(C)C)=[N+](C(C)(C)C)[B-]21C(C)(C)C` (stereo unspecified) displayed a concentration for total growth inhibition (TGI) above 100 µM.
On the same count and under the same terms, as for `Brc1ccc(CCNCCN2CCCCC2)cc1`, the figure is 49.8 µM.
Same read-out and setting: as for `Cc1ccc(C(=O)Nc2ccc(CP(=O)(O)O)cc2CP(=O)(O)O)cc1NC(=O)c1cccc(N)c1`, the figure is above 100 µM; as for `OC1C2[C@@H](O)CCCN2C[C@@H](O)[C@H]1O` (stereo partly specified), above 100 µM.
Same read-out and setting: as for `CC[C@]1(Cc2ccc(OC)c(OC)c2)CN(S(=O)(=O)c2ccc(C)cc2)C[C@@H]1OC(C)=O`, the figure is above 100 µM; as for `Cc1c(F)c(N)c2c(=O)cc(-c3ccc(NC(=O)CN(C)C)c(F)c3)oc2c1F`, above 100 µM; as for `O=C(CC(=O)n1nc(-c2ccccc2)c(N=Nc2ccccc2C(=O)O)c1-c1ccccc1)Nc1ccc(Cl)cc1`, 80.8 µM.
`C=C(C)C12CC(COC(=O)c3ccccc3)C34OC5(OC1C3C1OC1(CO)C(O)C1(O)C(OC(=O)c3ccccc3)C(C)C(C(C)CCCCCCC5O)C14)O2` (stereo unspecified) returned a TGI above 100 µM.
On the same count and under the same terms, as for `C[C@@]12[C@H]3CC[C@@H]1[C@H](O)C(=O)N2CC3`, the figure is above 100 µM.
On the same count and under the same terms, as for `COC(=O)CNC(=O)C(Cc1ccccc1)NC(=O)C(CCSC)NC(=O)C(Cc1ccc(O)cc1)NC(=O)OC(C)(C)C` (stereo unspecified) (Boc-YMFG-OMe; configuration not given here), the figure is above 100 µM; as for `O=C1CCC[C@@H]2NC[C@@H](c3ccc4c(c3)OCO4)[C@H]12`, above 25 µM.
Same read-out and setting: as for `Cc1ccc([C@@H]2[C@@H](C(=O)c3ccccn3)[C@H](c3ccc(C)cc3)C[C@](O)(c3ccccn3)[C@H]2C(=O)c2ccccn2)cc1`, the figure is above 100 µM.
Regarding `COc1cc(/C=C2/C(=O)N(C(=O)c3ccccc3O)N=C2C)cc(OC)c1OC`, the TGI came out at 8.74 µM.
With `CCCc1cc(=O)c2c(C)c3[nH]c4ccc(Cl)cc4c3c(C)c2[nH]1`, the TGI worked out at 3.86 µM.
The same measure, in the same setting: as for `CC(CN1c2ccccc2Sc2ccccc21)N(C)C` (stereo unspecified), the figure is 37.5 µM.
Same read-out and setting: as for `Cc1nnc(Nc2ccccc2)o1`, the figure is above 100 µM.

For a further experiment, the system named is SN12C renal. The experiment can be described thus: DTP human tumour cell line panel, 48 h.
For the compound `COc1ccc(C2CC(c3c(O)ccc4ccccc34)=NN2c2ccc([N+](=O)[O-])cc2[N+](=O)[O-])cc1OC` (stereo unspecified), the total growth inhibition concentration (TGI) is above 100 µM.
Same read-out and setting: as for `O=C(O)CSc1nnc(COc2ccc(Cl)cc2)n1-c1ccccc1`, the figure is above 100 µM; as for `CN(C)CCCOc1nc2c(c(=O)n(C)c(=O)n2C)n1C` (tested in a mixture with another compound), 30.1 µM; as for `C[N+]1=C2[B-](C(C)(C)C)=[N+](C(C)(C)C)[B-]2(C(C)(C)C)[N+](C)=C2[B-](C(C)(C)C)=[N+](C(C)(C)C)[B-]21C(C)(C)C` (stereo unspecified), above 100 µM.
`Brc1ccc(CCNCCN2CCCCC2)cc1` showed a TGI of 58.5 µM.
The same measure, in the same setting: as for `Cc1ccc(C(=O)Nc2ccc(CP(=O)(O)O)cc2CP(=O)(O)O)cc1NC(=O)c1cccc(N)c1`, the figure is above 100 µM; as for `OC1C2[C@@H](O)CCCN2C[C@@H](O)[C@H]1O` (stereo partly specified), above 100 µM.
On the same count and under the same terms, as for `Cc1c(F)c(N)c2c(=O)cc(-c3ccc(NC(=O)CN(C)C)c(F)c3)oc2c1F`, the figure is above 100 µM; as for `C=C(C)C12CC(COC(=O)c3ccccc3)C34OC5(OC1C3C1OC1(CO)C(O)C1(O)C(OC(=O)c3ccccc3)C(C)C(C(C)CCCCCCC5O)C14)O2` (stereo unspecified), above 100 µM; as for `COC(=O)CNC(=O)C(Cc1ccccc1)NC(=O)C(CCSC)NC(=O)C(Cc1ccc(O)cc1)NC(=O)OC(C)(C)C` (stereo unspecified) (Boc-YMFG-OMe; configuration not given here), above 100 µM.
Same read-out and setting: as for `O=C1CCC[C@@H]2NC[C@@H](c3ccc4c(c3)OCO4)[C@H]12`, the figure is above 25 µM; as for `Cc1ccc([C@@H]2[C@@H](C(=O)c3ccccn3)[C@H](c3ccc(C)cc3)C[C@](O)(c3ccccn3)[C@H]2C(=O)c2ccccn2)cc1`, above 100 µM; as for `COc1cc(/C=C2/C(=O)N(C(=O)c3ccccc3O)N=C2C)cc(OC)c1OC`, above 91.2 µM.
In the case of `CCCc1cc(=O)c2c(C)c3[nH]c4ccc(Cl)cc4c3c(C)c2[nH]1`, the concentration for total growth inhibition (TGI) was determined as 5.31 µM.
The same measure, in the same setting: as for `CC(CN1c2ccccc2Sc2ccccc21)N(C)C` (stereo unspecified), the figure is 29.1 µM.
Still for that read-out and setting: as for `Cc1nnc(Nc2ccccc2)o1`, the figure is above 100 µM.

The next experiment relates to SW-620 colon. The experiment can be described thus: DTP human tumour cell line panel, 48 h.
As for `COc1ccc(C2CC(c3c(O)ccc4ccccc34)=NN2c2ccc([N+](=O)[O-])cc2[N+](=O)[O-])cc1OC` (stereo unspecified), the total growth inhibition concentration (TGI) is above 100 µM.
Still for that read-out and setting: as for `O=C(O)CSc1nnc(COc2ccc(Cl)cc2)n1-c1ccccc1`, the figure is above 100 µM.
Still for that read-out and setting: as for `CN(C)CCCOc1nc2c(c(=O)n(C)c(=O)n2C)n1C` (tested in a mixture with another compound), the figure is above 100 µM.
The same measure, in the same setting: as for `C[N+]1=C2[B-](C(C)(C)C)=[N+](C(C)(C)C)[B-]2(C(C)(C)C)[N+](C)=C2[B-](C(C)(C)C)=[N+](C(C)(C)C)[B-]21C(C)(C)C` (stereo unspecified), the figure is above 100 µM; as for `Brc1ccc(CCNCCN2CCCCC2)cc1`, 31.1 µM; as for `Cc1ccc(C(=O)Nc2ccc(CP(=O)(O)O)cc2CP(=O)(O)O)cc1NC(=O)c1cccc(N)c1`, above 100 µM.
Compound `OC1C2[C@@H](O)CCCN2C[C@@H](O)[C@H]1O` (stereo partly specified) gave a TGI above 100 µM.
Still for that read-out and setting: as for `CC[C@]1(Cc2ccc(OC)c(OC)c2)CN(S(=O)(=O)c2ccc(C)cc2)C[C@@H]1OC(C)=O`, the figure is above 100 µM; as for `Cc1c(F)c(N)c2c(=O)cc(-c3ccc(NC(=O)CN(C)C)c(F)c3)oc2c1F`, above 74.6 µM.
The same measure, in the same setting: as for `O=C(CC(=O)n1nc(-c2ccccc2)c(N=Nc2ccccc2C(=O)O)c1-c1ccccc1)Nc1ccc(Cl)cc1`, the figure is above 100 µM.

For the origin of these results see PubChem BioAssay (NCI).
